# Test system: MV4-11
# Experiment: cell viability (% survival relative to DMSO control); higher = less cytotoxic
# Details: drug1 concentration 500 nM; drug2 concentration 500 nM; 72 h
# Protocol: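 8x8 drug-combination matrices (0–5000 nM; rosiglitazone and lestaurtinib 0–1000 nM) were run in MV4-11 cells for 72 h with CellTiter-Glo read-out. Survival is normalised to DMSO and 10 µM bortezomib and clipped at 100%.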
row,Compound,cell viability
1,CN(C)C(=O)n1nnnc1Cc1ccc(-c2ccccc2)cc1 + CCOC(=O)N1c2ccc(C(F)(F)F)cc2[C@@H](N(Cc2cc(C(F)(F)F)cc(C(F)(F)F)c2)C(=O)OC)C[C@H]1CC [Torcetrapib],> 100%
2,Oc1ncc(F)c(O)n1 [5-fluorouracil] + C[C@]12O[C@H](C[C@]1(O)CO)n1c3ccccc3c3c4c(c5c6ccccc6n2c5c31)CNC4=O [Lestaurtinib],0.91%
3,CN(C)CCNC(=O)c1cccn2c(=O)c3cc4ccccc4cc3nc12 [Bmh-21] + O=C(O)CC[N+](=O)[O-] [3-nitropropionic acid],> 100%

# Same assay, conditions: drug1 concentration 500 nM; drug2 concentration 1000 nM; 72 h
row,Compound,cell viability
1,CN(C)C(=O)n1nnnc1Cc1ccc(-c2ccccc2)cc1 + CCOC(=O)N1c2ccc(C(F)(F)F)cc2[C@@H](N(Cc2cc(C(F)(F)F)cc(C(F)(F)F)c2)C(=O)OC)C[C@H]1CC [Torcetrapib],99.7%
2,Oc1ncc(F)c(O)n1 [5-fluorouracil] + C[C@]12O[C@H](C[C@]1(O)CO)n1c3ccccc3c3c4c(c5c6ccccc6n2c5c31)CNC4=O [Lestaurtinib],2.21%
3,CN(C)CCNC(=O)c1cccn2c(=O)c3cc4ccccc4cc3nc12 [Bmh-21] + O=C(O)CC[N+](=O)[O-] [3-nitropropionic acid],> 100%

# Same assay, conditions: drug1 concentration 500 nM; drug2 concentration 5000 nM; 72 h
row,Compound,cell viability
1,CN(C)C(=O)n1nnnc1Cc1ccc(-c2ccccc2)cc1 + CCOC(=O)N1c2ccc(C(F)(F)F)cc2[C@@H](N(Cc2cc(C(F)(F)F)cc(C(F)(F)F)c2)C(=O)OC)C[C@H]1CC [Torcetrapib],> 100%
2,CN(C)CCNC(=O)c1cccn2c(=O)c3cc4ccccc4cc3nc12 [Bmh-21] + O=C(O)CC[N+](=O)[O-] [3-nitropropionic acid],62.8%

# Same assay, conditions: drug1 concentration 1000 nM; drug2 concentration 1 nM; 72 h
row,Compound,cell viability
1,Oc1ncc(F)c(O)n1 [5-fluorouracil] + C[C@]12O[C@H](C[C@]1(O)CO)n1c3ccccc3c3c4c(c5c6ccccc6n2c5c31)CNC4=O [Lestaurtinib],68.5%

# Same assay, conditions: drug1 concentration 1000 nM; drug2 concentration 5 nM; 72 h
row,Compound,cell viability
1,CN(C)C(=O)n1nnnc1Cc1ccc(-c2ccccc2)cc1 + CCOC(=O)N1c2ccc(C(F)(F)F)cc2[C@@H](N(Cc2cc(C(F)(F)F)cc(C(F)(F)F)c2)C(=O)OC)C[C@H]1CC [Torcetrapib],> 100%
2,Oc1ncc(F)c(O)n1 [5-fluorouracil] + C[C@]12O[C@H](C[C@]1(O)CO)n1c3ccccc3c3c4c(c5c6ccccc6n2c5c31)CNC4=O [Lestaurtinib],41.9%
3,CN(C)CCNC(=O)c1cccn2c(=O)c3cc4ccccc4cc3nc12 [Bmh-21] + O=C(O)CC[N+](=O)[O-] [3-nitropropionic acid],88.4%

# Same assay, conditions: drug1 concentration 1000 nM; drug2 concentration 10 nM; 72 h
row,Compound,cell viability
1,CN(C)C(=O)n1nnnc1Cc1ccc(-c2ccccc2)cc1 + CCOC(=O)N1c2ccc(C(F)(F)F)cc2[C@@H](N(Cc2cc(C(F)(F)F)cc(C(F)(F)F)c2)C(=O)OC)C[C@H]1CC [Torcetrapib],79.8%
2,Oc1ncc(F)c(O)n1 [5-fluorouracil] + C[C@]12O[C@H](C[C@]1(O)CO)n1c3ccccc3c3c4c(c5c6ccccc6n2c5c31)CNC4=O [Lestaurtinib],25.7%
3,CN(C)CCNC(=O)c1cccn2c(=O)c3cc4ccccc4cc3nc12 [Bmh-21] + O=C(O)CC[N+](=O)[O-] [3-nitropropionic acid],77.4%

# Same assay, conditions: drug1 concentration 1000 nM; drug2 concentration 50 nM; 72 h
row,Compound,cell viability
1,CN(C)C(=O)n1nnnc1Cc1ccc(-c2ccccc2)cc1 + CCOC(=O)N1c2ccc(C(F)(F)F)cc2[C@@H](N(Cc2cc(C(F)(F)F)cc(C(F)(F)F)c2)C(=O)OC)C[C@H]1CC [Torcetrapib],97.3%
2,Oc1ncc(F)c(O)n1 [5-fluorouracil] + C[C@]12O[C@H](C[C@]1(O)CO)n1c3ccccc3c3c4c(c5c6ccccc6n2c5c31)CNC4=O [Lestaurtinib],5.74%
3,CN(C)CCNC(=O)c1cccn2c(=O)c3cc4ccccc4cc3nc12 [Bmh-21] + O=C(O)CC[N+](=O)[O-] [3-nitropropionic acid],78.7%

# Same assay, conditions: drug1 concentration 1000 nM; drug2 concentration 100 nM; 72 h
row,Compound,cell viability
1,CN(C)C(=O)n1nnnc1Cc1ccc(-c2ccccc2)cc1 + CCOC(=O)N1c2ccc(C(F)(F)F)cc2[C@@H](N(Cc2cc(C(F)(F)F)cc(C(F)(F)F)c2)C(=O)OC)C[C@H]1CC [Torcetrapib],77.1%
2,Oc1ncc(F)c(O)n1 [5-fluorouracil] + C[C@]12O[C@H](C[C@]1(O)CO)n1c3ccccc3c3c4c(c5c6ccccc6n2c5c31)CNC4=O [Lestaurtinib],3.09%
3,CN(C)CCNC(=O)c1cccn2c(=O)c3cc4ccccc4cc3nc12 [Bmh-21] + O=C(O)CC[N+](=O)[O-] [3-nitropropionic acid],84.5%

# Same assay, conditions: drug1 concentration 1000 nM; drug2 concentration 500 nM; 72 h
row,Compound,cell viability
1,CN(C)C(=O)n1nnnc1Cc1ccc(-c2ccccc2)cc1 + CCOC(=O)N1c2ccc(C(F)(F)F)cc2[C@@H](N(Cc2cc(C(F)(F)F)cc(C(F)(F)F)c2)C(=O)OC)C[C@H]1CC [Torcetrapib],> 100%
2,Oc1ncc(F)c(O)n1 [5-fluorouracil] + C[C@]12O[C@H](C[C@]1(O)CO)n1c3ccccc3c3c4c(c5c6ccccc6n2c5c31)CNC4=O [Lestaurtinib],0.05%
3,CN(C)CCNC(=O)c1cccn2c(=O)c3cc4ccccc4cc3nc12 [Bmh-21] + O=C(O)CC[N+](=O)[O-] [3-nitropropionic acid],96.8%

# Same assay, conditions: drug1 concentration 1000 nM; drug2 concentration 1000 nM; 72 h
row,Compound,cell viability
1,CN(C)C(=O)n1nnnc1Cc1ccc(-c2ccccc2)cc1 + CCOC(=O)N1c2ccc(C(F)(F)F)cc2[C@@H](N(Cc2cc(C(F)(F)F)cc(C(F)(F)F)c2)C(=O)OC)C[C@H]1CC [Torcetrapib],> 100%
2,Oc1ncc(F)c(O)n1 [5-fluorouracil] + C[C@]12O[C@H](C[C@]1(O)CO)n1c3ccccc3c3c4c(c5c6ccccc6n2c5c31)CNC4=O [Lestaurtinib],1.49%
3,CN(C)CCNC(=O)c1cccn2c(=O)c3cc4ccccc4cc3nc12 [Bmh-21] + O=C(O)CC[N+](=O)[O-] [3-nitropropionic acid],57.3%

# Same assay, conditions: drug1 concentration 1000 nM; drug2 concentration 5000 nM; 72 h
row,Compound,cell viability
1,CN(C)C(=O)n1nnnc1Cc1ccc(-c2ccccc2)cc1 + CCOC(=O)N1c2ccc(C(F)(F)F)cc2[C@@H](N(Cc2cc(C(F)(F)F)cc(C(F)(F)F)c2)C(=O)OC)C[C@H]1CC [Torcetrapib],94.2%
2,CN(C)CCNC(=O)c1cccn2c(=O)c3cc4ccccc4cc3nc12 [Bmh-21] + O=C(O)CC[N+](=O)[O-] [3-nitropropionic acid],59.4%

# Same assay, conditions: drug1 concentration 5000 nM; drug2 concentration 1 nM; 72 h
row,Compound,cell viability
1,Oc1ncc(F)c(O)n1 [5-fluorouracil] + C[C@]12O[C@H](C[C@]1(O)CO)n1c3ccccc3c3c4c(c5c6ccccc6n2c5c31)CNC4=O [Lestaurtinib],12.8%

# Same assay, conditions: drug1 concentration 5000 nM; drug2 concentration 5 nM; 72 h
row,Compound,cell viability
1,CN(C)C(=O)n1nnnc1Cc1ccc(-c2ccccc2)cc1 + CCOC(=O)N1c2ccc(C(F)(F)F)cc2[C@@H](N(Cc2cc(C(F)(F)F)cc(C(F)(F)F)c2)C(=O)OC)C[C@H]1CC [Torcetrapib],0.81%
2,Oc1ncc(F)c(O)n1 [5-fluorouracil] + C[C@]12O[C@H](C[C@]1(O)CO)n1c3ccccc3c3c4c(c5c6ccccc6n2c5c31)CNC4=O [Lestaurtinib],21.9%
3,CN(C)CCNC(=O)c1cccn2c(=O)c3cc4ccccc4cc3nc12 [Bmh-21] + O=C(O)CC[N+](=O)[O-] [3-nitropropionic acid],29.9%

# Same assay, conditions: drug1 concentration 5000 nM; drug2 concentration 10 nM; 72 h
row,Compound,cell viability
1,CN(C)C(=O)n1nnnc1Cc1ccc(-c2ccccc2)cc1 + CCOC(=O)N1c2ccc(C(F)(F)F)cc2[C@@H](N(Cc2cc(C(F)(F)F)cc(C(F)(F)F)c2)C(=O)OC)C[C@H]1CC [Torcetrapib],3.27%
2,Oc1ncc(F)c(O)n1 [5-fluorouracil] + C[C@]12O[C@H](C[C@]1(O)CO)n1c3ccccc3c3c4c(c5c6ccccc6n2c5c31)CNC4=O [Lestaurtinib],13.7%
3,CN(C)CCNC(=O)c1cccn2c(=O)c3cc4ccccc4cc3nc12 [Bmh-21] + O=C(O)CC[N+](=O)[O-] [3-nitropropionic acid],34.1%

# Same assay, conditions: drug1 concentration 5000 nM; drug2 concentration 50 nM; 72 h
row,Compound,cell viability
1,CN(C)C(=O)n1nnnc1Cc1ccc(-c2ccccc2)cc1 + CCOC(=O)N1c2ccc(C(F)(F)F)cc2[C@@H](N(Cc2cc(C(F)(F)F)cc(C(F)(F)F)c2)C(=O)OC)C[C@H]1CC [Torcetrapib],4.29%
2,Oc1ncc(F)c(O)n1 [5-fluorouracil] + C[C@]12O[C@H](C[C@]1(O)CO)n1c3ccccc3c3c4c(c5c6ccccc6n2c5c31)CNC4=O [Lestaurtinib],1.61%
3,CN(C)CCNC(=O)c1cccn2c(=O)c3cc4ccccc4cc3nc12 [Bmh-21] + O=C(O)CC[N+](=O)[O-] [3-nitropropionic acid],57.4%

# Same assay, conditions: drug1 concentration 5000 nM; drug2 concentration 100 nM; 72 h
row,Compound,cell viability
1,CN(C)C(=O)n1nnnc1Cc1ccc(-c2ccccc2)cc1 + CCOC(=O)N1c2ccc(C(F)(F)F)cc2[C@@H](N(Cc2cc(C(F)(F)F)cc(C(F)(F)F)c2)C(=O)OC)C[C@H]1CC [Torcetrapib],1.95%
2,Oc1ncc(F)c(O)n1 [5-fluorouracil] + C[C@]12O[C@H](C[C@]1(O)CO)n1c3ccccc3c3c4c(c5c6ccccc6n2c5c31)CNC4=O [Lestaurtinib],-0.36%
3,CN(C)CCNC(=O)c1cccn2c(=O)c3cc4ccccc4cc3nc12 [Bmh-21] + O=C(O)CC[N+](=O)[O-] [3-nitropropionic acid],91.6%

# Same assay, conditions: drug1 concentration 5000 nM; drug2 concentration 500 nM; 72 h
row,Compound,cell viability
1,CN(C)C(=O)n1nnnc1Cc1ccc(-c2ccccc2)cc1 + CCOC(=O)N1c2ccc(C(F)(F)F)cc2[C@@H](N(Cc2cc(C(F)(F)F)cc(C(F)(F)F)c2)C(=O)OC)C[C@H]1CC [Torcetrapib],1.23%
2,Oc1ncc(F)c(O)n1 [5-fluorouracil] + C[C@]12O[C@H](C[C@]1(O)CO)n1c3ccccc3c3c4c(c5c6ccccc6n2c5c31)CNC4=O [Lestaurtinib],0.08%
3,CN(C)CCNC(=O)c1cccn2c(=O)c3cc4ccccc4cc3nc12 [Bmh-21] + O=C(O)CC[N+](=O)[O-] [3-nitropropionic acid],11.1%

# Same assay, conditions: drug1 concentration 5000 nM; drug2 concentration 1000 nM; 72 h
row,Compound,cell viability
1,CN(C)C(=O)n1nnnc1Cc1ccc(-c2ccccc2)cc1 + CCOC(=O)N1c2ccc(C(F)(F)F)cc2[C@@H](N(Cc2cc(C(F)(F)F)cc(C(F)(F)F)c2)C(=O)OC)C[C@H]1CC [Torcetrapib],2.41%
2,Oc1ncc(F)c(O)n1 [5-fluorouracil] + C[C@]12O[C@H](C[C@]1(O)CO)n1c3ccccc3c3c4c(c5c6ccccc6n2c5c31)CNC4=O [Lestaurtinib],0.17%
3,CN(C)CCNC(=O)c1cccn2c(=O)c3cc4ccccc4cc3nc12 [Bmh-21] + O=C(O)CC[N+](=O)[O-] [3-nitropropionic acid],68.4%

# Same assay, conditions: drug1 concentration 5000 nM; drug2 concentration 5000 nM; 72 h
row,Compound,cell viability
1,CN(C)C(=O)n1nnnc1Cc1ccc(-c2ccccc2)cc1 + CCOC(=O)N1c2ccc(C(F)(F)F)cc2[C@@H](N(Cc2cc(C(F)(F)F)cc(C(F)(F)F)c2)C(=O)OC)C[C@H]1CC [Torcetrapib],2.53%
2,CN(C)CCNC(=O)c1cccn2c(=O)c3cc4ccccc4cc3nc12 [Bmh-21] + O=C(O)CC[N+](=O)[O-] [3-nitropropionic acid],43.1%
